Experiments:
[1] = system: CD4+ T cells of patients with multiple sclerosis; test: Generation of antigen specific CD4+ T cells, CD154 (CD40L) expression by flow cytometry; format: cell-based, human; details: for specific induction of effector cells (CD3+CD4+CD154+): overnight co-culture
Procedure: PBMCs were isolated from blood samples of patients with multiple sclerosis treated by dimethyl fumarate (DMF) on Lymphoprep density gradients.
(§1) CD14+ monocytes were isolated from these PBMCs by performing positive immunomagnetic separation with CD14 microbeads (Miltenyi Biotec, 130-050-201) according to the supplier recommendations. CD14+ monocytes were cultured for six days and maturated to generate autologous dendritic cells (mDC). CD19+ B cells were isolated from the CD14- PBMCs fraction by performing positive immunomagnetic separation with CD19 microbeads (Miltenyi Biotec, 130-050-301) according to the supplier recommendations. CD19+ B cells were cultured and immortalized with EBV to generate autologous lymphoblastoid cell lines (LCL).
(§2) Naïve CD4+ T cells were also purified from the CD14- PBMCs fraction by performing negative immunomagnetic separation with naïve CD4+ T cell isolation kit (Miltenyi Biotec, 130-094-131) according to the supplier recommendations. Naïve CD4+ T cells were co-cultured with autologous mDC or LCL in the presence of P2 and P4 peptides. The CD4+ T cells were re-stimulated periodically, about every 10-12 days.
(§3) The ability of the peptides to generate antigen specific CD4+ T cells was evaluated by flow cytometry analysis of the TCR induced surface activation marker CD154 (CD40L) expression after overnight co-culture at resting state with autologous LCL without (no peptide) or with the peptides (P2 or P4). The surface expression of the lytic marker Fas ligand (CD178) was also evaluated by flow cytometry analysis after overnight co-culture at resting state with autologous LCL without (no peptide) or with the peptide (P4).

[2] = system: CD4+ T cells of patients with multiple sclerosis; test: Cytokine secretion in CD4+ T cell culture supernatants (LEGENDplex Human Th Panel); format: cell-based
Text: as §2
The ability of the peptides to induce cytokines secretion in CD4+ T cells culture supernatants was evaluated by flow cytometry analysis after overnight co-culture at resting state with autologous mDC without (no peptide) or with the peptides (P2 or P4). Supernatants were analyzed with the LEGENDplex Human Th Panel (13-plex) (BioLegend, 740721) according to the supplier recommendations.

[3] = system: autologous LCL; test: Cytolytic activity: apoptosis of autologous LCL (Annexin V); format: cell-based, human; details: peptide-loaded labelled autologous LCL co-cultured with P4-specific CD4+ T cell lines from patients MS017 (S7), MS026 (S12), MS028 (S11) and MS029 (S9)
Procedure: as §1
The cytolytic activity of the antigen specific CD4+ T cells was evaluated by quantifying the apoptosis induced on LCL used as antigen presenting cells. Fluorescently labelled autologous LCL, loaded or not with the peptide (P4), were overnight co-cultured at resting state with specific CD4+ T cells, and LCL apoptosis was quantified by flow cytometry through Annexin V staining. Considering the apoptosis percentage of unloaded LCL, used as control, the percentage of specific apoptosis was calculated as follows

[4] = system: CD4+ T cells of patients with multiple sclerosis; test: Surface expression of lytic marker Fas ligand (CD178) by flow cytometry; format: cell-based, human; details: CD4+ cell lines of patients MS017 (S9) and MS020 (S10)
Procedure: as §2, §3

[5] = system: Experimental Auto-Immune Encephalomyelitis (EAE); test: Therapeutic administration in MOG35-55-induced EAE; format: in vivo; details: 30 μg s.c. with alum, days 4, 9, 14, 19, vs Saline group
Procedure: The study used a total of 48 female C57BL/6 mice (Taconic Biosciences, 9 weeks old on Day 0). Mice were acclimated for 7 days prior to the first injection. Mice were assigned to groups in a balanced manner to achieve similar average weight across the groups at the start of the study.
Dosing of all mice was performed once on each of the days indicated in Table 2, s.c., at a volume of 0.05 mL/site, each mouse receiving injection at two sites, for a total of 0.1 mL/mouse/dosing day. IMCY-0189 or P4 peptide total dose was 30 μg per administration.
Lyophilized immunogenic peptide IMCY-0189 with the sequence […] (SEQ ID NO: 260), comprising an oxidoreductase motif HCPYC (SEQ ID NO: 24), a linker GW, a murine Myelin Oligodendrocyte Glycoprotein (MOG35-55) MHCII T cell epitope […] (SEQ ID NO: 261) and a flanking sequence HLYR (SEQ ID NO: 262) (Smart Bioscience) was solubilized immediately before use. Lyophilized IMCY-0189 was thawed at room temperature for 10 minutes, resuspended in Na Acetate buffer 50 mM NaCl 0.9% pH 5.4 and incubated at room temperature for 10 minutes. Reconstituted peptide was then mixed with Imject™ Alum Adjuvant before injection.
Lyophilized immunogenic peptide P4 with the sequence […] (SEQ ID NO: 27), comprising an oxidoreductase motif KHCPYC (SEQ ID NO: 50), a linker VRY, a human Myelin Oligodendrocyte Glycoprotein (MOG201-212) MHCII T cell epitope […] (SEQ ID NO: 2) and a flanking sequence TLFKK (SEQ ID NO: 263) (Smart Bioscience) was solubilized immediately before use. Lyophilized P4 was thawed at room temperature for 10 minutes, resuspended in Na Acetate buffer 50 mM NaCl 0.9% pH 5.4 and incubated at room temperature for 10 minutes. Reconstituted peptide was then mixed with Imject™ Alum Adjuvant before injection.
EAE was induced in all mice as follows: • Day 0, Hour 0—Immunization with a peptide corresponding to the amino acids 35-55 of MOG (MOG35-55)/CFA • Day 0, Hour 2—Injection of pertussis toxin • Day 1, Hour 0—2nd injection of pertussis toxin (24 hours after initial immunization).
Mice were injected subcutaneously at two sites in the back with the emulsion component (containing MOG35-55) of Hooke Kit™ MOG35-55/CFA Emulsion PTX, catalog number EK-2110 (lot #131, Hooke Laboratories, Lawrence MA). One site of injection was in the area of upper back, approximately 1 cm caudal of the neck line. The second site was in the area of lower back, approximately 2 cm cranial of the base of the tail. The injection volume was 0.1 mL at each site. Each mouse received 200 μg of MOG35-55.
Within 2 hours of the injection of emulsion, and then again 24 hours after the injection of emulsion, the pertussis toxin component of the kit was administered intraperitoneally. The pertussis toxin (lot #1008, Hooke Laboratories) was administered at 90 ng/dose for both injections and the volume of each injection was 0.1 mL.
Animals were scored daily starting from Day 7 to the end of the study. Scoring was performed blind, by a person unaware of both treatment and of previous scores for each mouse. In-between scores were assigned when the clinical signs fell between two above defined scores.
On Day 28, blood was collected from all mice into gel clot activator tubes and allowed to clot at room temperature for ˜30 minutes. Blood is then centrifuged at ˜10000 g for 5 minutes. Serum was transferred into Eppendorf tubes and stored at −80° C. until shipment to Quanterix™. Serum Neurofilament light (NF-L) protein levels were quantified using Simoa® NF-light Advantage kit, a digital immunoassay for the quantitative determination of NF-L in serum, plasma and CSF. The used antibodies (Uman Diagnostics, Umea Sweden) also cross react with murine, bovine and macaque NF-L epitopes and as such, this assay can be used for research with these species. All samples were tested in duplicate at a dilution factor of 40×. […]

[6] = biological target: T1, soluble HLA-DRB1*03:01 human MHC II protein (human); test: soluble-phase competition vs biotin-tagged control peptide, Eu3+-streptavidin fluorescence (FIG. 2)
T1 construct: Soluble protein purchased from the Benaroya Research Institute; also called HLA-DR3; DR3
Procedure: (§4) To test the binding of the immunogenic peptides to MHCII molecules, a soluble phase competition assay is performed. […] As binding approaches its equilibrium (18h), biotin-labelled peptide/MHC II complexes are captured, separated from unbound reagents, and quantitatively detected by time-resolved fluorescence (Eu³⁺ streptavidin, Perkin Elmer, Brussels, Belgium). […] Data are processed and plotted to ascertain dose-dependent binding properties of test peptides. All the tests are performed in triplicates.

[7] = biological target: T2, soluble HLA-DRB1*04:01 human MHC II protein (human); test: soluble-phase competition vs biotin-tagged control peptide, Eu3+-streptavidin fluorescence (FIG. 3)
T2 construct: Soluble protein purchased from the Benaroya Research Institute; also called HLA-DR4; DR4
Procedure: as §4

[8] = P4-specific CD4+ cell lines of patients MS024 (S20), MS017 (S9), MS026 (S13), MS028 (S11) and MS029 (S9)
[9] = culture supernatant of MS017 (S12) and MS024 (S20) CD4+ cell lines, P4 vs S-WT epitope peptide

Molecule | specific induction of effector cells (CD3+CD4+CD154+) [1, 8] | specific secretion of cytokine (IL-5) [2, 9] | percentage of specific LCL apoptosis [3] | specific induction of effector cells (CD3+CD4+CD154+) ([1]; P4-specific CD4+ cell lines of patients MS017 (S14) and MS026 (S13)) | generation of peptide-specific CD4+ T cell lines from MS patients ([1]; naive CD4+ T cells co-cultured with autologous mDC or LCL in presence of peptide) | frequency of effector cells (CD3+CD4+CD154+) ([1]; patients' CD4+ cell lines, overnight co-culture with autologous LCL with peptide vs no peptide) | effector cells expressing the lytic marker Fas ligand (CD3+CD4+CD154+FasL+) [4] | specific secretion of cytokine (IL-5) ([2]; culture supernatant of MS017 (S15) CD4+ cell line, P4 vs C-WT epitope peptides) | specific secretion of cytokine (IL-5) ([2]; culture supernatant of MS017 (S15), MS024 (S20) and MS026 (S14) CD4+ cell lines) | AUC (area under the curve) of EAE scores [5] | MMS (mean maximal score) [5] | disease onset [5] | level of demyelination (anti-MBP stained spinal cord sections) [5] | level of inflammation (inflammatory foci, H&E stained spinal cord sections) [5] | serum NF-L levels ([5]; Day 28) | end score ([5]; EAE score 0-5) | binding result [6] | binding result [7]
KLHRTFDPHFLRVPSWKITLFK [short S-WT, reference compound] | specific induction | specific secretion | increase |  |  |  |  |  |  |  |  |  |  |  |  |  |  | 
KHCPYCVRYFLRVPSWKITLFKK [P4] | specific induction | specific secretion | increase | specific induction | able to generate P4-specific CD4+ T cell lines from eight different MS patients | high frequency | specific increase | specific secretion | specific secretion | statistically significant reduced | statistically significant reduced | postponed | reduced level | reduced level | statistically significant reduced | reduced |  | 
HCPYCVRYFLRVPCWKITLF (Synthetic) [P3 peptide HCPYCVRYFLRVPCWKITLF] |  |  |  |  |  |  |  |  |  |  |  |  |  |  |  |  | binds | binds

From patent publication US20230340061A1, “PEPTIDES AND METHODS FOR THE TREATMENT OF MULTIPLE SCLEROSIS” (IMCYSE SA, priority 2020, published 2023)
